From patent US20210181179A1, “DIAGNOSIS AND TREATMENT OF IMMUNOTHERAPY-INDUCED NEUROTOXICITY” (MEMORIAL SLOAN KETTERING CANCER CENTER, priority 2018, published 2021)

Key:
KARPAS231 (B-ALL) = experiment: Net production of TRP metabolites in media samples, KARPAS231; format: cell-based
CCF-STTG1 (astrocytoma) = experiment: Net production of TRP metabolites in media samples, CCF-STTG1; format: cell-based, human
Text: (§1) Under physiological conditions in the brain, kynurenine metabolism is driven by microglial cells and astrocytes with preferential production of QUIN and KA respectively. […] This may have been due to T cells producing cytokines and/or intermediate metabolites that are further metabolized to QUIN by the cells. In order to identify specific factors that may lead to tryptophan-kynurenine pathway up-regulation for QUIN production, we tested a panel of cytokine and chemokines implicated in NTX and CRS. […] We initially evaluated the panel of the select factors individually (FIGS. 16 A-B). We selected several cytokines based on their effect on rate-limiting enzymes for QUIN production. These included IFNγ, TNF, […], CXCL10 and […]. These enzymes were selected based on their regulation of key enzymes, KMO and KYNU, which may lead to supraphysiological accumulation of QUIN. These factors were further evaluated, individually or in combination, on astrocytoma, microglial, and primary monocyte-derived macrophages for mRNA levels of kynurenine pathway enzymes and kynurenine metabolites production (FIG. 17).

THP-1 (monocyte) = experiment: Net production of TRP metabolites in media samples, THP-1; format: cell-based
DOAY (medulloblastoma) = experiment: Net production of TRP metabolites in media samples, DOAY; format: cell-based
SUP-B15 (B-ALL) = experiment: Net production of TRP metabolites in media samples, SUP-B15; format: cell-based
CCRF-SB (B-ALL) = experiment: Net production of TRP metabolites in media samples, CCRF-SB; format: cell-based
HCN2 (cortical neuron) = experiment: Net production of TRP metabolites in media samples, HCN2; format: cell-based
BV173 (B-ALL) = experiment: Net production of TRP metabolites in media samples, BV173; format: cell-based
ALL3.1 (B-ALL) = experiment: Net production of TRP metabolites in media samples, ALL3.1; format: cell-based
RS4; 11 (B-ALL) = experiment: Net production of TRP metabolites in media samples, RS4; 11; format: cell-based
HMC3 (microglia) = experiment: Net production of TRP metabolites in media samples, HMC3; format: cell-based, human
Text: as §1

## IFNα
KARPAS231 (B-ALL)
  Net production of TRP metabolites in media samples: 3-HK: 5.48 ± 2.1
  Net production of TRP metabolites in media samples: HAA: 30.76 ± 4.2
  Net production of TRP metabolites in media samples: KA: −9.3 ± 5.1
  Net production of TRP metabolites in media samples: KYN: 200.48 ± 77.6
  Net production of TRP metabolites in media samples: QUIN: −42.74 ± 33.3
CCF-STTG1 (astrocytoma)
  Net production of TRP metabolites in media samples: 3-HK: −13.12 ± 0.55
  Net production of TRP metabolites in media samples: HAA: 10.54 ± 0.8
  Net production of TRP metabolites in media samples: KA: 3.46 ± 1
  Net production of TRP metabolites in media samples: KYN: 4734.38 ± 128
  Net production of TRP metabolites in media samples: QUIN: 15.16 ± 5.5
THP-1 (monocyte)
  Net production of TRP metabolites in media samples: 3-HK: 0.62 ± 1.4
  Net production of TRP metabolites in media samples: KA: −8.98 ± 2.2
  Net production of TRP metabolites in media samples: KYN: 101.24 ± 17.6
  Net production of TRP metabolites in media samples: QUIN: 12.08 ± 32.1
DOAY (medulloblastoma)
  Net production of TRP metabolites in media samples: 3-HK: −13.46 ± 0.5
  Net production of TRP metabolites in media samples: HAA: 11.62 ± 0.8
  Net production of TRP metabolites in media samples: KA: 10.28 ± 3.2
  Net production of TRP metabolites in media samples: KYN: 263.2 ± 20^
  Net production of TRP metabolites in media samples: QUIN: 54.5 ± 21.8
SUP-B15 (B-ALL)
  Net production of TRP metabolites in media samples: 3-HK: 19.38 ± 16.3
  Net production of TRP metabolites in media samples: HAA: 7.32 ± 1.1
  Net production of TRP metabolites in media samples: KA: −10.36 ± 4.4
  Net production of TRP metabolites in media samples: KYN: 292.4 ± 186.6
  Net production of TRP metabolites in media samples: QUIN: −79.6 ± 31.2
CCRF-SB (B-ALL)
  Net production of TRP metabolites in media samples: 3-HK: 1.16 ± 6.5
  Net production of TRP metabolites in media samples: HAA: 5.3 ± 0.2
  Net production of TRP metabolites in media samples: KA: −6.78 ± 4^
  Net production of TRP metabolites in media samples: KYN: 93.56 ± 90.1
  Net production of TRP metabolites in media samples: QUIN: −47.16 ± 28.1
HCN2 (cortical neuron)
  Net production of TRP metabolites in media samples: 3-HK: −4.46 ± 8.2
  Net production of TRP metabolites in media samples: HAA: 5.38 ± 0.4
  Net production of TRP metabolites in media samples: KA: 3.26 ± 6.1
  Net production of TRP metabolites in media samples: KYN: 105.24 ± 37
  Net production of TRP metabolites in media samples: QUIN: 13.26 ± 31.6
BV173 (B-ALL)
  Net production of TRP metabolites in media samples: 3-HK: 9.94 ± 8.7
  Net production of TRP metabolites in media samples: KA: −3.56 ± 4.1
  Net production of TRP metabolites in media samples: KYN: 257.66 ± 175.9
  Net production of TRP metabolites in media samples: QUIN: 6.36 ± 32.9
ALL3.1 (B-ALL)
  Net production of TRP metabolites in media samples: 3-HK: 6.76 ± 6.7
  Net production of TRP metabolites in media samples: KA: −1.1 ± 3.4
  Net production of TRP metabolites in media samples: KYN: 49.4 ± 114.2
  Net production of TRP metabolites in media samples: QUIN: −55.38 ± 21.2
RS4; 11 (B-ALL)
  Net production of TRP metabolites in media samples: 3-HK: −1.96 ± 1.6
  Net production of TRP metabolites in media samples: KA: −6.3 ± 2.3
  Net production of TRP metabolites in media samples: KYN: −14 ± 22.7
  Net production of TRP metabolites in media samples: QUIN: 40.46 ± 24^
HMC3 (microglia)
  Net production of TRP metabolites in media samples: 3-HK: 10.4 ± 18.6
  Net production of TRP metabolites in media samples: HAA: 0.56 ± 1.8
  Net production of TRP metabolites in media samples: KA: 4.48 ± 3.1
  Net production of TRP metabolites in media samples: KYN: 899.26 ± 383^
  Net production of TRP metabolites in media samples: QUIN: 42 ± 18.5

## Il6: cytokine
KARPAS231 (B-ALL)
  Net production of TRP metabolites in media samples: 3-HK: 1.48 ± 2.2
  Net production of TRP metabolites in media samples: HAA: 8.68 ± 1.5
  Net production of TRP metabolites in media samples: KA: −7.58 ± 4.2
  Net production of TRP metabolites in media samples: KYN: −77.44 ± 27.4
  Net production of TRP metabolites in media samples: QUIN: −37.78 ± 29.5
CCF-STTG1 (astrocytoma)
  Net production of TRP metabolites in media samples: 3-HK: −8.16 ± 2.2
  Net production of TRP metabolites in media samples: HAA: 11 ± 0.4
  Net production of TRP metabolites in media samples: KA: 5.16 ± 1.1
  Net production of TRP metabolites in media samples: KYN: 4385.94 ± 43.3
  Net production of TRP metabolites in media samples: QUIN: 17.06 ± 11^
THP-1 (monocyte)
  Net production of TRP metabolites in media samples: 3-HK: 0.5 ± 1.2
  Net production of TRP metabolites in media samples: KA: −6.74 ± 6.2
  Net production of TRP metabolites in media samples: KYN: 176.36 ± 33
  Net production of TRP metabolites in media samples: QUIN: −5.14 ± 52.9
DOAY (medulloblastoma)
  Net production of TRP metabolites in media samples: 3-HK: −11.68 ± 1.2
  Net production of TRP metabolites in media samples: HAA: 11.14 ± 0.8
  Net production of TRP metabolites in media samples: KA: 6.16 ± 4.2
  Net production of TRP metabolites in media samples: KYN: 41.5 ± 21.6
  Net production of TRP metabolites in media samples: QUIN: 29.66 ± 29.4
SUP-B15 (B-ALL)
  Net production of TRP metabolites in media samples: 3-HK: 16.58 ± 13.5
  Net production of TRP metabolites in media samples: HAA: 6.44 ± 0.8
  Net production of TRP metabolites in media samples: KA: −6.4 ± 3
  Net production of TRP metabolites in media samples: KYN: 309 ± 182
  Net production of TRP metabolites in media samples: QUIN: −65.6 ± 16^
CCRF-SB (B-ALL)
  Net production of TRP metabolites in media samples: 3-HK: 27.64 ± 22.5
  Net production of TRP metabolites in media samples: HAA: 9.34 ± 2.1
  Net production of TRP metabolites in media samples: KA: −6.88 ± 1.5
  Net production of TRP metabolites in media samples: KYN: 438.12 ± 308.6
  Net production of TRP metabolites in media samples: QUIN: −51.14 ± 13 ^
HCN2 (cortical neuron)
  Net production of TRP metabolites in media samples: 3-HK: 4.96 ± 0.8
  Net production of TRP metabolites in media samples: HAA: 5.48 ± 0.8
  Net production of TRP metabolites in media samples: KA: 0.86 ± 2.1
  Net production of TRP metabolites in media samples: KYN: −2.08 ± 19^
  Net production of TRP metabolites in media samples: QUIN: 0.94 ± 12.9
BV173 (B-ALL)
  Net production of TRP metabolites in media samples: 3-HK: 12.32 ± 11.8
  Net production of TRP metabolites in media samples: KA: −3 ± 3
  Net production of TRP metabolites in media samples: KYN: 244.92 ± 172.4
  Net production of TRP metabolites in media samples: QUIN: 13.06 ± 15.6
ALL3.1 (B-ALL)
  Net production of TRP metabolites in media samples: 3-HK: 1.48 ± 5.3
  Net production of TRP metabolites in media samples: KA: −2.36 ± 6^
  Net production of TRP metabolites in media samples: KYN: 95.16 ± 123.3
  Net production of TRP metabolites in media samples: QUIN: 8.66 ± 36.5
RS4; 11 (B-ALL)
  Net production of TRP metabolites in media samples: 3-HK: −1.36 ± 1.1
  Net production of TRP metabolites in media samples: KA: −6.52 ± 2.3
  Net production of TRP metabolites in media samples: KYN: −3.36 ± 38.7
  Net production of TRP metabolites in media samples: QUIN: 16.28 ± 63.8
HMC3 (microglia)
  Net production of TRP metabolites in media samples: 3-HK: 8.44 ± 18
  Net production of TRP metabolites in media samples: HAA: 0.12 ± 2.4
  Net production of TRP metabolites in media samples: KA: 6.3 ± 3.8
  Net production of TRP metabolites in media samples: KYN: 545.08 ± 313^
  Net production of TRP metabolites in media samples: QUIN: 61.04 ± 23.7
